Results as given in patent US6965048B2, “Hydroxyalkylamide derivatives” (Hoffmann-La Roche Inc., priority 2003, dated 2005).

CN(CC[C@H]1CC[C@H](C(=O)N2CCC(C(N)=O)CC2)CC1)C(=O)Oc1ccc(Cl)cc1
melting point: 162 to 165 °C (dec.)
